In patent publication US11000033B2, “Ketone or oxime compound, and herbicide” (NISSAN CHEMICAL CORPORATION, priority 2014, dated 2021):

Tests used:
Format in all cases: in vivo
[1] = test system: Echinochloa crus-galli var. crus-galli; assay: Test Example 4: herbicidal effect by soil treatment (symbol H); conditions: for Herbicidal effect grade, H: Echinochloa crus-galli var. crus-galli / H (Echinochloa crus-galli var. crus-galli) herbicidal effect grade: application herbicide amount 320 g/ha; for H: Echinochloa crus-galli var. crus-galli, herbicidal effect grade: 320 g/ha
Summary of the method: (§1)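 Seeds were sown in sterilized diluvial soil, covered with about 1.5 cm of soil, and the soil surface was sprayed with a water-diluted emulsion of the compound at a predetermined rate. Plants grew in a greenhouse at 25° C. to 30° C.; effects were scored visually 3 weeks after application.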

Alopecurus myosuroides = assay: Test Example 4: herbicidal effect by soil treatment (symbol J); conditions: for Herbicidal effect grade, J: Alopecurus myosuroides / J (Alopecurus myosuroides) herbicidal effect grade: application herbicide amount 320 g/ha; for J: Alopecurus myosuroides, herbicidal effect grade: 320 g/ha
Summary of the method: as §1

Lolium multiflorum Lam. = assay: Test Example 4: herbicidal effect by soil treatment (symbol K); conditions: for Herbicidal effect grade, K: Lolium multiflorum Lam. / K (Lolium multiflorum Lam.) herbicidal effect grade: application herbicide amount 320 g/ha; for K: Lolium multiflorum Lam., herbicidal effect grade: 320 g/ha
Summary of the method: as §1

Chenopodium album = assay: Test Example 4: herbicidal effect by soil treatment (symbol O); conditions: application herbicide amount 320 g/ha
Summary of the method: as §1

Stellaria media = assay: Test Example 4: herbicidal effect by soil treatment (symbol P); conditions: for Herbicidal effect grade, P: Stellaria media / P (Stellaria media) herbicidal effect grade: application herbicide amount 320 g/ha; for P: Stellaria media, herbicidal effect grade: 320 g/ha
Summary of the method: as §1

Galium spurium = assay: Test Example 4: herbicidal effect by soil treatment (symbol Q); conditions: for Herbicidal effect grade, Q: Galium spurium / Q (Galium spurium) herbicidal effect grade: application herbicide amount 320 g/ha; for Q: Galium spurium, herbicidal effect grade: 320 g/ha
Summary of the method: as §1

CC(CC1CC(O)=C(c2c(C)cc(Br)cc2C)C1=O)=NOCC(=O)N(C)C (mixture of isomers) [9-029]
Herbicidal effect grade, H: Echinochloa crus-galli var. crus-galli [1]: 3 (Herbicidal ratio of 40% or higher and lower than 70%) | Herbicidal effect grade, J: Alopecurus myosuroides (Alopecurus myosuroides): 3 (Herbicidal ratio of 40% or higher and lower than 70%) | Herbicidal effect grade, K: Lolium multiflorum Lam. (Lolium multiflorum Lam.): 4 (Herbicidal ratio of 70% or higher and lower than 90%) | Herbicidal effect grade, O: Chenopodium album (Chenopodium album): 0 (Herbicidal ratio of 5% or lower (almost no effect)) | Herbicidal effect grade, P: Stellaria media (Stellaria media): 0 (Herbicidal ratio of 5% or lower (almost no effect)) | Herbicidal effect grade, Q: Galium spurium (Galium spurium): 0 (Herbicidal ratio of 5% or lower (almost no effect))

CC(CC1CC(O)=C(c2c(C)cc(C)cc2C)C1=O)=NOCC(=O)N1CCOCC1 (stereo not shown) [1-025]
H (Echinochloa crus-galli var. crus-galli) herbicidal effect grade [1]: 5 (Herbicidal ratio of 90% or more (almost completely withered)) | J (Alopecurus myosuroides) herbicidal effect grade (Alopecurus myosuroides): 4 (Herbicidal ratio of 70% or higher and lower than 90%) | K (Lolium multiflorum Lam.) herbicidal effect grade (Lolium multiflorum Lam.): 5 (Herbicidal ratio of 90% or more (almost completely withered)) | P (Stellaria media) herbicidal effect grade (Stellaria media): 0 (Herbicidal ratio of 5% or lower (almost no effect)) | Q (Galium spurium) herbicidal effect grade (Galium spurium): 0 (Herbicidal ratio of 5% or lower (almost no effect))

CON=C(C)CC1CC(OCC#C[Si](C)(C)C)=C(c2c(C)cc(C)cc2C)C1=O (stereo not shown) [1-031]
H (Echinochloa crus-galli var. crus-galli) herbicidal effect grade [1]: 0 (Herbicidal ratio of 5% or lower (almost no effect)) | J (Alopecurus myosuroides) herbicidal effect grade (Alopecurus myosuroides): 0 (Herbicidal ratio of 5% or lower (almost no effect)) | K (Lolium multiflorum Lam.) herbicidal effect grade (Lolium multiflorum Lam.): 0 (Herbicidal ratio of 5% or lower (almost no effect)) | P (Stellaria media) herbicidal effect grade (Stellaria media): 0 (Herbicidal ratio of 5% or lower (almost no effect)) | Q (Galium spurium) herbicidal effect grade (Galium spurium): 0 (Herbicidal ratio of 5% or lower (almost no effect))

CCCCCCCCC(=O)OC1=C(c2c(C)cc(C)cc2C)C(=O)C(CC(C)=NOC)C1 (stereo not shown) [1-033]
H (Echinochloa crus-galli var. crus-galli) herbicidal effect grade [1]: 5 (Herbicidal ratio of 90% or more (almost completely withered)) | J (Alopecurus myosuroides) herbicidal effect grade (Alopecurus myosuroides): 5 (Herbicidal ratio of 90% or more (almost completely withered)) | K (Lolium multiflorum Lam.) herbicidal effect grade (Lolium multiflorum Lam.): 5 (Herbicidal ratio of 90% or more (almost completely withered)) | P (Stellaria media) herbicidal effect grade (Stellaria media): 0 (Herbicidal ratio of 5% or lower (almost no effect)) | Q (Galium spurium) herbicidal effect grade (Galium spurium): 3 (Herbicidal ratio of 40% or higher and lower than 70%)

CON=C(C)CC1CC(OC(=O)C(C)(C)OC(C)=O)=C(c2c(C)cc(C)cc2C)C1=O (stereo not shown) [1-034]
H (Echinochloa crus-galli var. crus-galli) herbicidal effect grade [1]: 5 (Herbicidal ratio of 90% or more (almost completely withered)) | J (Alopecurus myosuroides) herbicidal effect grade (Alopecurus myosuroides): 5 (Herbicidal ratio of 90% or more (almost completely withered)) | K (Lolium multiflorum Lam.) herbicidal effect grade (Lolium multiflorum Lam.): 5 (Herbicidal ratio of 90% or more (almost completely withered)) | O (Chenopodium album) herbicidal effect grade (Chenopodium album): 5 (Herbicidal ratio of 90% or more (almost completely withered)) | Q (Galium spurium) herbicidal effect grade (Galium spurium): 4 (Herbicidal ratio of 70% or higher and lower than 90%)

CON=C(C)CC1CC(OC(=O)CCC2CCCCC2)=C(c2c(C)cc(C)cc2C)C1=O (stereo not shown) [1-035]
H (Echinochloa crus-galli var. crus-galli) herbicidal effect grade [1]: 5 (Herbicidal ratio of 90% or more (almost completely withered)) | J (Alopecurus myosuroides) herbicidal effect grade (Alopecurus myosuroides): 5 (Herbicidal ratio of 90% or more (almost completely withered)) | K (Lolium multiflorum Lam.) herbicidal effect grade (Lolium multiflorum Lam.): 5 (Herbicidal ratio of 90% or more (almost completely withered)) | Q (Galium spurium) herbicidal effect grade (Galium spurium): 0 (Herbicidal ratio of 5% or lower (almost no effect))

COCC(CC1CC(O)=C(c2c(C)cc(C)cc2C)C1=O)=NOC (stereo not shown) [1-040]
H (Echinochloa crus-galli var. crus-galli) herbicidal effect grade [1]: 5 (Herbicidal ratio of 90% or more (almost completely withered)) | J (Alopecurus myosuroides) herbicidal effect grade (Alopecurus myosuroides): 4 (Herbicidal ratio of 70% or higher and lower than 90%) | K (Lolium multiflorum Lam.) herbicidal effect grade (Lolium multiflorum Lam.): 4 (Herbicidal ratio of 70% or higher and lower than 90%) | Q (Galium spurium) herbicidal effect grade (Galium spurium): 0 (Herbicidal ratio of 5% or lower (almost no effect))

CON=C(C)CC1CC(OC(=O)COc2ccccc2)=C(c2c(C)cc(C)cc2C)C1=O (stereo not shown) [1-043]
H (Echinochloa crus-galli var. crus-galli) herbicidal effect grade [1]: 5 (Herbicidal ratio of 90% or more (almost completely withered)) | J (Alopecurus myosuroides) herbicidal effect grade (Alopecurus myosuroides): 5 (Herbicidal ratio of 90% or more (almost completely withered)) | K (Lolium multiflorum Lam.) herbicidal effect grade (Lolium multiflorum Lam.): 5 (Herbicidal ratio of 90% or more (almost completely withered)) | Q (Galium spurium) herbicidal effect grade (Galium spurium): 0 (Herbicidal ratio of 5% or lower (almost no effect))

CON=C(CC1CC(O)=C(c2c(C)cc(C)cc2C)C1=O)C1CC1 (stereo not shown) [1-046]
H (Echinochloa crus-galli var. crus-galli) herbicidal effect grade [1]: 5 (Herbicidal ratio of 90% or more (almost completely withered)) | J (Alopecurus myosuroides) herbicidal effect grade (Alopecurus myosuroides): 5 (Herbicidal ratio of 90% or more (almost completely withered)) | K (Lolium multiflorum Lam.) herbicidal effect grade (Lolium multiflorum Lam.): 5 (Herbicidal ratio of 90% or more (almost completely withered)) | Q (Galium spurium) herbicidal effect grade (Galium spurium): 0 (Herbicidal ratio of 5% or lower (almost no effect))

CON=C(C)C(c1ccc(F)cc1)C1CC(O)=C(c2c(C)cc(C)cc2C)C1=O (stereo not shown) [1-049]
H (Echinochloa crus-galli var. crus-galli) herbicidal effect grade [1]: 0 (Herbicidal ratio of 5% or lower (almost no effect)) | J (Alopecurus myosuroides) herbicidal effect grade (Alopecurus myosuroides): 0 (Herbicidal ratio of 5% or lower (almost no effect)) | K (Lolium multiflorum Lam.) herbicidal effect grade (Lolium multiflorum Lam.): 0 (Herbicidal ratio of 5% or lower (almost no effect)) | P (Stellaria media) herbicidal effect grade (Stellaria media): 0 (Herbicidal ratio of 5% or lower (almost no effect)) | Q (Galium spurium) herbicidal effect grade (Galium spurium): 0 (Herbicidal ratio of 5% or lower (almost no effect))

CON=C(C)CC1CC(OC(=O)COc2ccccc2OC)=C(c2c(C)cc(C)cc2C)C1=O (stereo not shown) [1-067]
H (Echinochloa crus-galli var. crus-galli) herbicidal effect grade [1]: 5 (Herbicidal ratio of 90% or more (almost completely withered)) | J (Alopecurus myosuroides) herbicidal effect grade (Alopecurus myosuroides): 5 (Herbicidal ratio of 90% or more (almost completely withered)) | K (Lolium multiflorum Lam.) herbicidal effect grade (Lolium multiflorum Lam.): 5 (Herbicidal ratio of 90% or more (almost completely withered)) | P (Stellaria media) herbicidal effect grade (Stellaria media): 0 (Herbicidal ratio of 5% or lower (almost no effect)) | Q (Galium spurium) herbicidal effect grade (Galium spurium): 0 (Herbicidal ratio of 5% or lower (almost no effect))

CON=C(C)CC1CC(OC(=O)COc2cccc(OC)c2)=C(c2c(C)cc(C)cc2C)C1=O (stereo not shown) [1-068]
H (Echinochloa crus-galli var. crus-galli) herbicidal effect grade [1]: 5 (Herbicidal ratio of 90% or more (almost completely withered)) | J (Alopecurus myosuroides) herbicidal effect grade (Alopecurus myosuroides): 5 (Herbicidal ratio of 90% or more (almost completely withered)) | K (Lolium multiflorum Lam.) herbicidal effect grade (Lolium multiflorum Lam.): 5 (Herbicidal ratio of 90% or more (almost completely withered)) | P (Stellaria media) herbicidal effect grade (Stellaria media): 0 (Herbicidal ratio of 5% or lower (almost no effect)) | Q (Galium spurium) herbicidal effect grade (Galium spurium): 0 (Herbicidal ratio of 5% or lower (almost no effect))

CON=C(C)CC1CC(OC(=O)COc2ccccc2[N+](=O)[O-])=C(c2c(C)cc(C)cc2C)C1=O (stereo not shown) [1-071]
H (Echinochloa crus-galli var. crus-galli) herbicidal effect grade [1]: 5 (Herbicidal ratio of 90% or more (almost completely withered)) | J (Alopecurus myosuroides) herbicidal effect grade (Alopecurus myosuroides): 5 (Herbicidal ratio of 90% or more (almost completely withered)) | K (Lolium multiflorum Lam.) herbicidal effect grade (Lolium multiflorum Lam.): 5 (Herbicidal ratio of 90% or more (almost completely withered)) | P (Stellaria media) herbicidal effect grade (Stellaria media): 0 (Herbicidal ratio of 5% or lower (almost no effect)) | Q (Galium spurium) herbicidal effect grade (Galium spurium): 0 (Herbicidal ratio of 5% or lower (almost no effect))

CON=C(C)CC1CC(OC(=O)COc2ccc(C)cc2)=C(c2c(C)cc(C)cc2C)C1=O (stereo not shown) [1-072]
H (Echinochloa crus-galli var. crus-galli) herbicidal effect grade [1]: 5 (Herbicidal ratio of 90% or more (almost completely withered)) | J (Alopecurus myosuroides) herbicidal effect grade (Alopecurus myosuroides): 5 (Herbicidal ratio of 90% or more (almost completely withered)) | K (Lolium multiflorum Lam.) herbicidal effect grade (Lolium multiflorum Lam.): 5 (Herbicidal ratio of 90% or more (almost completely withered)) | P (Stellaria media) herbicidal effect grade (Stellaria media): 0 (Herbicidal ratio of 5% or lower (almost no effect)) | Q (Galium spurium) herbicidal effect grade (Galium spurium): 0 (Herbicidal ratio of 5% or lower (almost no effect))

CON=C(C)CC1CC(OC(=O)C(C)Oc2ccc(Oc3cnc4cc(Cl)ccc4n3)cc2)=C(c2c(C)cc(C)cc2C)C1=O (stereo not shown) [1-087]
H: Echinochloa crus-galli var. crus-galli, herbicidal effect grade [1]: 5 (Herbicidal ratio of 90% or more (almost completely withered)) | J: Alopecurus myosuroides, herbicidal effect grade (Alopecurus myosuroides): 5 (Herbicidal ratio of 90% or more (almost completely withered)) | K: Lolium multiflorum Lam., herbicidal effect grade (Lolium multiflorum Lam.): 5 (Herbicidal ratio of 90% or more (almost completely withered)) | P: Stellaria media, herbicidal effect grade (Stellaria media): 0 (Herbicidal ratio of 5% or lower (almost no effect)) | Q: Galium spurium, herbicidal effect grade (Galium spurium): 0 (Herbicidal ratio of 5% or lower (almost no effect))

CON=C(C)CC1CC(OC(=O)C=Cc2ccco2)=C(c2c(C)cc(C)cc2C)C1=O (stereo not shown) [1-091]
H: Echinochloa crus-galli var. crus-galli, herbicidal effect grade [1]: 5 (Herbicidal ratio of 90% or more (almost completely withered)) | J: Alopecurus myosuroides, herbicidal effect grade (Alopecurus myosuroides): 5 (Herbicidal ratio of 90% or more (almost completely withered)) | K: Lolium multiflorum Lam., herbicidal effect grade (Lolium multiflorum Lam.): 5 (Herbicidal ratio of 90% or more (almost completely withered)) | P: Stellaria media, herbicidal effect grade (Stellaria media): 0 (Herbicidal ratio of 5% or lower (almost no effect)) | Q: Galium spurium, herbicidal effect grade (Galium spurium): 0 (Herbicidal ratio of 5% or lower (almost no effect))

CC(=O)CC1CC(O)=C(c2c(C)cc(Oc3ccccc3)cc2C)C1=O (stereo not shown) [7-014]
Herbicidal effect grade, H: Echinochloa crus-galli var. crus-galli [1]: 0 (Herbicidal ratio of 5% or lower (almost no effect)) | Herbicidal effect grade, J: Alopecurus myosuroides (Alopecurus myosuroides): 0 (Herbicidal ratio of 5% or lower (almost no effect)) | Herbicidal effect grade, K: Lolium multiflorum Lam. (Lolium multiflorum Lam.): 3 (Herbicidal ratio of 40% or higher and lower than 70%) | Herbicidal effect grade, P: Stellaria media (Stellaria media): 0 (Herbicidal ratio of 5% or lower (almost no effect)) | Herbicidal effect grade, Q: Galium spurium (Galium spurium): 0 (Herbicidal ratio of 5% or lower (almost no effect))
